This note sets out measurements from ChEMBL document CHEMBL5034001 (J Med Chem, 2021).

For assay [1], the system named is SR. The assay is described as follows: Antiproliferative activity against human SR cells assessed as inhibition of cell growth incubated for 72 hrs by CCK8 assay. Type of assay: functional, cell-based.
The target in assay [2] is Focal adhesion kinase 1 (Homo sapiens) (UniProt Q05397). Nature of the assay: Induction of FAK degradation in human MDA-MB-231 cells assessed as protein stability at 50 ug/ml after 8 hrs. Type of assay: cell-based. As to conditions: dose 50.0 µg/ml.
Assay [3] concerns the target Protein-tyrosine kinase 2-beta (Homo sapiens) (UniProt Q14289). The assay is described as follows: Induction of PYK2 degradation in human MDA-MB-231 cells assessed as protein stability at 50 ug/ml after 8 hrs. The conditions noted are these: dose 50.0 µg/ml. Type of assay: cell-based.
The target in assay [4] is T1, ALK tyrosine kinase receptor (Homo sapiens, UniProt Q9UM73). Nature of the assay: Induction of ALK degradation in human SR cells assessed as protein stability at 50 ug/ml after 24 hrs. The assay is classed as cell-based. The conditions noted are these: dose 50.0 µg/ml.
Assay [5] has as its target T1, ALK tyrosine kinase receptor. The assay is described as follows: Induction of ALK degradation in human SR cells at 500 nM after 16 hrs by Western blot analysis. Type of assay: cell-based. (In general: Immunoblotting shows a protein as a band on a membrane.)
Assay [6] has as its target Signal transducer and activator of transcription 3 (Homo sapiens) (UniProt P40763). Nature of the assay: Inhibition of STAT3 downstream signalling in human NCI-H2228 cells assessed as reduction in pSTAT3 level at 1 to 1000 nM by Western blot analysis. The assay is classed as cell-based. As to conditions: dose 1-1000 nM.
The subject of assay [7] is SR. The assay is described as follows: Antiproliferative activity against human SR cells assessed as inhibition of cell growth at 10 nM preincubated for 5 days followed by compound washout and measured on day 7 and 9 by CCK8 assay. Type of assay: functional, cell-based. The conditions noted are these: time 5.0 day. Background: Formazan colour is commonly taken as a measure of viable cells.

Assay [8] has as its system SR. The assay is described as follows: Induction of G1 cell cycle arrest in human SR cells at 100 nM after 24 to 48 hrs. The assay is classed as functional, cell-based. As to conditions: time 24-48 hrs.
Assay [9] relates to MDA-MB-231. The assay is described as follows: Induction of apoptosis in human MDA-MB-231 cells at 100 nM after 72 hrs. The assay is classed as functional, cell-based.
The subject of assay [10] is Calu-1. Nature of the assay: Induction of apoptosis in human Calu-1 cells at 100 nM after 72 hrs. The assay is classed as functional, cell-based.
Assay [11] concerns HEK-293T. The assay is described as follows: Antiproliferative activity against human 293T cells overexpressing ALK G1202R mutant assessed as cell growth inhibition after 72 hrs. The assay is classed as functional, cell-based.
Assay [12] deals with MDA-MB-231. The assay is described as follows: Inhibition of cell migration in human MDA-MB-231 cells at 100 nM after 48 hrs by wound healing assay. The assay is classed as functional, cell-based.
Assay [13] relates to MDA-MB-231. Nature of the assay: Induction of G1 cell cycle arrest in human MDA-MB-231 cells at 100 nM after 24 to 48 hrs. Type of assay: functional, cell-based. The conditions noted are these: time 24-48 hrs.
Assay [14] has as its system Calu-1. Nature of the assay: Induction of G1 cell cycle arrest in human Calu-1 cells at 100 nM after 24 to 48 hrs. Type of assay: functional, cell-based. As to conditions: time 24-48 hrs.
Assay [15] concerns the target Signal transducer and activator of transcription 3 (Homo sapiens) (UniProt P40763). Nature of the assay: Inhibition of STAT3 downstream signalling in human SR cells assessed as reduction in pSTAT3 level at 10 nM by Western blot analysis. The assay is classed as cell-based.
Assay [16] deals with Calu-1. The assay is described as follows: Inhibition of cell migration in human Calu-1 cells at 100 nM after 12 to 24 hrs by wound healing assay. The assay is classed as functional, cell-based. As to conditions: time lower […], time upper 24.0 hrs.
Assay [17] concerns MDA-MB-231. The assay is described as follows: Inhibition of cell migration in human MDA-MB-231 cells assessed as wound confluence ratio at 500 nM after 48 hrs by wound healing assay. Type of assay: functional.

Calls of active or inactive are those of the source. The rule behind the calls is not given here.

What is called IC50 is the concentration needed to halve the response being measured. Broadly, the inhibition is the relative decrease from the control value, in per cent.

Signal transducer and activator of transcription 3 (Homo sapiens), sequence (P40763 whole entry): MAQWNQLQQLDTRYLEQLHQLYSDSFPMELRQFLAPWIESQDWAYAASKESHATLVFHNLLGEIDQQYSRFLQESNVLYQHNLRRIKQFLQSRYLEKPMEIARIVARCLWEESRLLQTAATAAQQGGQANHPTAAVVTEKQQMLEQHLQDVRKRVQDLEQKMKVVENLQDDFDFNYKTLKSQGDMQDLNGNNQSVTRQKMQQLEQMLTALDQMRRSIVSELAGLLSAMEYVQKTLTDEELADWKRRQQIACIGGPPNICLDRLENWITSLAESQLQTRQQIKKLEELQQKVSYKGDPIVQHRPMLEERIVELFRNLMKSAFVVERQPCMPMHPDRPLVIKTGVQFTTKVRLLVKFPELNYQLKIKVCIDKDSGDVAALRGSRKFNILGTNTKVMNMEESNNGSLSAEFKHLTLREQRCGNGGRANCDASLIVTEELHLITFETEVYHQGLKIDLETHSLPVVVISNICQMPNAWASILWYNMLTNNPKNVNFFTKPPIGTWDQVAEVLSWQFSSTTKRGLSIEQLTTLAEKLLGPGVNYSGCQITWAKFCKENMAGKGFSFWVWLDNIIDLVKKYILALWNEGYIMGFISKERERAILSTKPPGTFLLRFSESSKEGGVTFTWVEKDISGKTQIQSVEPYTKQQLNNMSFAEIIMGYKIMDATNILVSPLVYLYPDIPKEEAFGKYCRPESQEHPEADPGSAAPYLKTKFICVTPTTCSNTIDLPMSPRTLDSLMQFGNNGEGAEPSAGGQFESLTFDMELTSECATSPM
T1 sequence (Q9UM73 19-1620 limits assumed): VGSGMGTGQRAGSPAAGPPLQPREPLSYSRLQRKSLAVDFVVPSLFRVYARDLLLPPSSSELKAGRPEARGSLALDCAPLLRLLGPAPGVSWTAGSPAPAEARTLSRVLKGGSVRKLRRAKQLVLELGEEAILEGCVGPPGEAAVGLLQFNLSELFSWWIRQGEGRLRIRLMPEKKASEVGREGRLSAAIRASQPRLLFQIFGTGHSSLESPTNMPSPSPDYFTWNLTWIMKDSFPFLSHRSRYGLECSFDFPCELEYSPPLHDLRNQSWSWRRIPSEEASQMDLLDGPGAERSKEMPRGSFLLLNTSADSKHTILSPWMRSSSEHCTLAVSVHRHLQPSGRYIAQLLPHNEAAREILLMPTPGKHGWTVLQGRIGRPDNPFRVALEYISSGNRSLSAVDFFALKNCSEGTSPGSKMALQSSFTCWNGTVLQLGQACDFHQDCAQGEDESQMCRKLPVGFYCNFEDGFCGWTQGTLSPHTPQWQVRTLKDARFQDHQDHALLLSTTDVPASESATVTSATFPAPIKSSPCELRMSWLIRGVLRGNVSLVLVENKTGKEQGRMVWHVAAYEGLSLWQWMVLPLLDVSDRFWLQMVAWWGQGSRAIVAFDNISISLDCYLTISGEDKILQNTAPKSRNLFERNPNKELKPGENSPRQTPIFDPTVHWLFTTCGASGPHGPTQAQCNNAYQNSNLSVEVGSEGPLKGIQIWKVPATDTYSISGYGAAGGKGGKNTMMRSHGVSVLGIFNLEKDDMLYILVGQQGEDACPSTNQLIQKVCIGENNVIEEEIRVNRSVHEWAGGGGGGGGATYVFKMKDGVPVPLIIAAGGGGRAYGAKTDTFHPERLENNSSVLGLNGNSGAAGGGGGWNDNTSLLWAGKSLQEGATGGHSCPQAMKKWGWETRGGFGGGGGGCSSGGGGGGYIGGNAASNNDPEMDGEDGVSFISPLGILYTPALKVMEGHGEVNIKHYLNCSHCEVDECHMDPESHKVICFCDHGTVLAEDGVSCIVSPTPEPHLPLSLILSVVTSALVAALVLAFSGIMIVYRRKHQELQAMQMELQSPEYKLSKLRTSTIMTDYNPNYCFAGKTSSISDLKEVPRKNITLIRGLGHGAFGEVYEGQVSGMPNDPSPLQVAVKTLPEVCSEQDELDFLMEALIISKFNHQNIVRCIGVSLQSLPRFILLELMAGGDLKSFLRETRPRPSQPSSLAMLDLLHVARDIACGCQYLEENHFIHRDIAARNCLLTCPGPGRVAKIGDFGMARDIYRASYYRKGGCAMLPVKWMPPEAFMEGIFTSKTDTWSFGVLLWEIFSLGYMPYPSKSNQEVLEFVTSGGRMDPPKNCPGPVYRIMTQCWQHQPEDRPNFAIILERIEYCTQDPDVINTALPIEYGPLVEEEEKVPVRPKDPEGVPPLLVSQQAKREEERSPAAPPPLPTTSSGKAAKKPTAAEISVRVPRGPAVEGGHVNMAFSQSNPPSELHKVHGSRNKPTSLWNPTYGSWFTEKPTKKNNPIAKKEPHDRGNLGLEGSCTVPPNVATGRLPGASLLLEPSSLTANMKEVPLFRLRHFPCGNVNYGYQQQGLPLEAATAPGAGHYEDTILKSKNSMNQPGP
Focal adhesion kinase 1 (Homo sapiens), sequence (Q05397 2-1052 limits assumed): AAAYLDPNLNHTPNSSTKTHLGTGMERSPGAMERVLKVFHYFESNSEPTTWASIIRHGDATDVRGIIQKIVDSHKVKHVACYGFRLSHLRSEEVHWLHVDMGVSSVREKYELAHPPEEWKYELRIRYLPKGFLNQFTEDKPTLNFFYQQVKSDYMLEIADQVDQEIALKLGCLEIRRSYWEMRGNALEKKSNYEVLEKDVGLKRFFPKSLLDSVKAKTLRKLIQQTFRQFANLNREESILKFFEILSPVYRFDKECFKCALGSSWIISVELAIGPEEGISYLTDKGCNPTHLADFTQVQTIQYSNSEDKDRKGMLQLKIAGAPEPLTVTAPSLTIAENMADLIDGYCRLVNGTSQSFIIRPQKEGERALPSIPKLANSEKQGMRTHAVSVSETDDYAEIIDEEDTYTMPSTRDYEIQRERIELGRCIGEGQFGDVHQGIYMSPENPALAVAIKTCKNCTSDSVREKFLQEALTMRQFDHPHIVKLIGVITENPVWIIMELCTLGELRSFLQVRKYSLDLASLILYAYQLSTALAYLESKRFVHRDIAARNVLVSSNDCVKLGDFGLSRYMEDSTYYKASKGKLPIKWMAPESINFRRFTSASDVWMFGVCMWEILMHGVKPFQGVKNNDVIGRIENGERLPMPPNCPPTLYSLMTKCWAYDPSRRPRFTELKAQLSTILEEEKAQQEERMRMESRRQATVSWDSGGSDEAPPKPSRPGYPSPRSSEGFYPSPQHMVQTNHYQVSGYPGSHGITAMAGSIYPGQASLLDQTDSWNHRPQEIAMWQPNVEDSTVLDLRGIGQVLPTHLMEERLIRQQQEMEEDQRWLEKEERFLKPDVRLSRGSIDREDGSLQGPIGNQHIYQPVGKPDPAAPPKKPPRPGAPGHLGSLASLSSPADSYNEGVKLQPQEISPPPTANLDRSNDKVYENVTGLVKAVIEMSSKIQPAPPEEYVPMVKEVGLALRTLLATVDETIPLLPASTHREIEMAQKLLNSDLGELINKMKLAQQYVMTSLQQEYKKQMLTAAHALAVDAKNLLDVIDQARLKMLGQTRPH
Protein-tyrosine kinase 2-beta (Homo sapiens), sequence (Q14289 whole entry, looked up): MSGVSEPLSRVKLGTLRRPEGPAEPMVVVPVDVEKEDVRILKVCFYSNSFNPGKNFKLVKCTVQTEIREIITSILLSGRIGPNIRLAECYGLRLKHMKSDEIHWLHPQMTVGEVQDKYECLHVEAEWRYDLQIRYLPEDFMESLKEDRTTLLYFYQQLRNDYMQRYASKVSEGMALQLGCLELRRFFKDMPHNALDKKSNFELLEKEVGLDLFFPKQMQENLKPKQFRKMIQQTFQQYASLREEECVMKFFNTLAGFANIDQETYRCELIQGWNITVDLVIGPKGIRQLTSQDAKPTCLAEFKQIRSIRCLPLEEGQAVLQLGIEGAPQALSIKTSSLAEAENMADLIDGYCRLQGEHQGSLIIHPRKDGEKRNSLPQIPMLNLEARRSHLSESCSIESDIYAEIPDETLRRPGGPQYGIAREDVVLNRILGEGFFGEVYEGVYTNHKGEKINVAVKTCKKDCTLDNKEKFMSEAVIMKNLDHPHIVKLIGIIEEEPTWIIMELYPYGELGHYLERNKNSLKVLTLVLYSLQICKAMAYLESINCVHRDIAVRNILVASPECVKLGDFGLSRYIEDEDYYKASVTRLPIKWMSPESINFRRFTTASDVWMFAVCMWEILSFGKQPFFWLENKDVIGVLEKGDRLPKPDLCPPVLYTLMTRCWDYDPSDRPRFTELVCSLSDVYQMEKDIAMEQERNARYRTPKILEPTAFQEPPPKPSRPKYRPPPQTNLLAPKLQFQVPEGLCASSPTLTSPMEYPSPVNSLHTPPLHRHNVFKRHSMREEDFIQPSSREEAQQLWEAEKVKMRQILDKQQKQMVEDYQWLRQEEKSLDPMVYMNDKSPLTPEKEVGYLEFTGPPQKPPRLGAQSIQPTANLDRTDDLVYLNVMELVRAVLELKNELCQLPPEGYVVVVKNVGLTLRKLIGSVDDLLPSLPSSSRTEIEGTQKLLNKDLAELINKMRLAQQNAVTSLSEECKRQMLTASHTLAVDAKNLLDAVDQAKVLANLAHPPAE

Turning to `COc1cc(N2CCC(N3CCN(C(=O)CCOCCOCCNc4cccc5c4C(=O)N(C4CCC(=O)NC4=O)C5=O)CC3)CC2)ccc1Nc1ncc(Cl)c(Nc2ccccc2P(C)(C)=O)n1` (stereo not drawn), in assay [1], the IC50 was found to be 3.6 nM.
Turning to `C[C@@H]1C[C@@H]([C@H](O)CC2CC(=O)NC(=O)C2)C(=O)[C@@H](C)C1`, the result in assay [2], in [3] and in assay [4] was Active.
Take `COc1cc(N2CCC(N3CCN(C(=O)CNc4cccc5c4C(=O)N(C4CCC(=O)N(C)C4=O)C5=O)CC3)CC2)ccc1Nc1ncc(Cl)c(Nc2ccccc2P(C)(C)=O)n1` (stereo not drawn): the outcome in assay [5] was Active. Moreover, the IC50 in assay [1] was found to be 16.3 nM.
With `COc1cc(N2CCC(N3CCN(C(=O)CCOCCOCCOCCNc4cccc5c4C(=O)N(C4CCC(=O)NC4=O)C5=O)CC3)CC2)ccc1Nc1ncc(Cl)c(Nc2ccccc2P(C)(C)=O)n1` (stereo not drawn), the IC50 in assay [1] stood at 5.3 nM.
Still for that read-out and setting: in the case of `COc1cc(N2CCC(N3CCN(C(=O)CCCCNc4cccc5c4C(=O)N(C4CCC(=O)NC4=O)C5=O)CC3)CC2)ccc1Nc1ncc(Cl)c(Nc2ccccc2P(C)(C)=O)n1` (stereo not drawn) it was 7.4 nM; in that of `COc1cc(N2CCC(N3CCN(C(=O)CCCCCNc4cccc5c4C(=O)N(C4CCC(=O)NC4=O)C5=O)CC3)CC2)ccc1Nc1ncc(Cl)c(Nc2ccccc2P(C)(C)=O)n1` (stereo not drawn), 3.3 nM; in that of `COc1cc(N2CCC(N3CCN(C(=O)CCOCCNc4cccc5c4C(=O)N(C4CCC(=O)NC4=O)C5=O)CC3)CC2)ccc1Nc1ncc(Cl)c(Nc2ccccc2P(C)(C)=O)n1` (stereo not drawn), 3.8 nM.
Still for that read-out and setting: next, `COc1cc(N2CCC(N3CCN(C(=O)CCNc4cccc5c4C(=O)N(C4CCC(=O)NC4=O)C5=O)CC3)CC2)ccc1Nc1ncc(Cl)c(Nc2ccccc2P(C)(C)=O)n1` (stereo not drawn): 9.6 nM.
On to `COc1cc(N2CCC(N3CCN(C)CC3)CC2)ccc1Nc1ncc(Cl)c(Nc2ccccc2P(C)(C)=O)n1` [BRIGATINIB], for which the inhibition entry in assay [6], in assay [12] and in assay [16] was “inactive” each time. In addition, the result in [7], in [9], in assay [10], in [13] and in [14] was inactive. For the same compound, in assay [8], the result was Active. Besides, the IC50 in assay [1] was 3.3 nM; in assay [11] it was 850 nM. For the same compound, in [15], the inhibition result is “Active”. The inhibition at 0.5 µM in assay [17] turned out to be 56%.
Take `COc1cc(N2CCC(N3CCN(C(=O)CCOCCOCCOCCOCCOCCNc4cccc5c4C(=O)N(C4CCC(=O)NC4=O)C5=O)CC3)CC2)ccc1Nc1ncc(Cl)c(Nc2ccccc2P(C)(C)=O)n1` (stereo not drawn): in [1], the IC50 came out at 14 nM.
The same measure, in the same setting: next, `COc1cc(N2CCC(N3CCN(C(=O)CCCNc4cccc5c4C(=O)N(C4CCC(=O)NC4=O)C5=O)CC3)CC2)ccc1Nc1ncc(Cl)c(Nc2ccccc2P(C)(C)=O)n1` (stereo not drawn): 2.9 nM; `COc1cc(N2CCC(N3CCN(C(=O)CCCCCCNc4cccc5c4C(=O)N(C4CCC(=O)NC4=O)C5=O)CC3)CC2)ccc1Nc1ncc(Cl)c(Nc2ccccc2P(C)(C)=O)n1` (stereo not drawn): 4.8 nM.
On the same count and under the same terms, in the case of `COc1cc(N2CCC(N3CCN(C(=O)CCOCCOCCOCCOCCNc4cccc5c4C(=O)N(C4CCC(=O)NC4=O)C5=O)CC3)CC2)ccc1Nc1ncc(Cl)c(Nc2ccccc2P(C)(C)=O)n1` (stereo not drawn) it was 11.2 nM.
